Active and inactive are the calls of the source. No cut-off for these calls is given here.
Tests used:
Mus musculus [1] = assay: Synergistic antiatherosclerotic activity in hypercholesterolemic ApoE-/- mouse model assessed as decrease in liver cholesterol level at 5 to 15 mg/kg, ip administered daily for 3 weeks in presence of SIMV; format: functional, organism-based; conditions: dose 5-15 mg/kg
Mus musculus [2] = assay: Antiatherosclerotic activity in hypercholesterolemic ApoE-/- mouse model assessed as decrease in liver damage at 5 to 15 mg/kg/day, ip measured after 21 days; format: functional, organism-based; conditions: dose 5-15 mg/kg/day, time 21.0 day
Mus musculus [3] = assay: Synergistic antiatherosclerotic activity in hypercholesterolemic ApoE-/- mouse model assessed as increase in liver LDLR at 5 to 15 mg/kg, ip administered daily for 3 weeks in presence of SIMV by Western blot analysis; format: functional, organism-based; conditions: dose 5-15 mg/kg
Huh-7 [4] = assay: Effect on autophagic flux in human Huh-7 cells upto 100 nM incubated for 24 hrs by Western blot analysis; format: functional, cell-based
Mus musculus [5] = assay: Antiatherosclerotic activity in hypercholesterolemic ApoE-/- mouse model assessed as decrease in TG accumulation in liver at 5 to 15 mg/kg/day, ip measured after 21 days; format: functional, organism-based; conditions: dose 5-15 mg/kg/day, time 21.0 day
Mus musculus [6] = assay: Antiatherosclerotic activity in hypercholesterolemic ApoE-/- mouse model assessed as increase in liver LDLR level at 5 to 15 mg/kg/day, ip measured after 21 days by immunohistochemistry analysis; format: functional, organism-based; conditions: dose 5-15 mg/kg/day, time 21.0 day
Mus musculus [7] = assay: Synergistic antiatherosclerotic activity in hypercholesterolemic ApoE-/- mouse model assessed as effect on plasma TG level at 5 to 15 mg/kg, ip administered daily for 3 weeks in presence of SIMV; format: functional, organism-based; conditions: dose 5-15 mg/kg
Mus musculus [8] = assay: Antiatherosclerotic activity in hypercholesterolemic ApoE-/- mouse model assessed as accumulation of cholesterol in liver at 5 to 15 mg/kg/day, ip measured after 21 days; format: functional, organism-based; conditions: dose 5-15 mg/kg/day, time 21.0 day
Mus musculus [9] = assay: Synergistic antiatherosclerotic activity in hypercholesterolemic ApoE-/- mouse model assessed as decrease in plasma LDL-C level at 15 mg/kg, ip administered daily for 3 weeks in presence of SIMV; format: functional; design: scale not given: the % may be the effect or the level left
Mus musculus [10] = assay: Antiatherosclerotic activity in hypercholesterolemic ApoE-/- mouse model assessed as decrease in plasma TG level administered intraperitoneally measured after 21 days; format: functional, organism-based; conditions: dose 5-15 mg/kg/day, route ip, time 21.0 day
Mus musculus [11] = assay: Synergistic antiatherosclerotic activity in hypercholesterolemic ApoE-/- mouse model assessed as decrease in liver fibrosis at 5 to 15 mg/kg, ip administered daily for 3 weeks in presence of SIMV by H and E staining based analysis; format: functional, organism-based; conditions: dose 5-15 mg/kg
Mus musculus [12] = assay: Synergistic antiatherosclerotic activity in hypercholesterolemic ApoE-/- mouse model assessed as decrease in liver oxidative stress at 5 to 15 mg/kg, ip administered daily for 3 weeks in presence of SIMV; format: functional, organism-based; conditions: dose 5-15 mg/kg
Mus musculus [13] = assay: Antiatherosclerotic activity in hypercholesterolemic ApoE-/- mouse model assessed as decrease in plasma LDL-C level administered intraperitoneally measured after 21 days; format: functional, organism-based; conditions: dose 5-15 mg/kg/day, route ip, time 21.0 day
Huh-7 [14] = assay: Effect on SREBP2 mRNA level in human Huh-7 cells at 20 to 500 nM incubated for 12 hrs by qRT-PCR analysis; format: functional, cell-based; conditions: dose 20-500 nM
Mus musculus [15] = assay: Antiatherosclerotic activity in hypercholesterolemic ApoE-/- mouse model assessed as decrease in vacuolization in liver at 5 to 15 mg/kg/day, ip measured after 21 days by Masson staining based analysis; format: functional, organism-based; conditions: dose 5-15 mg/kg/day, time 21.0 day
Mus musculus [16] = assay: Antiatherosclerotic activity in hypercholesterolemic ApoE-/- mouse model assessed as increase in liver LDLR level at 5 to 15 mg/kg/day, ip measured after 21 days by Western blot analysis; format: functional, organism-based; conditions: dose 5-15 mg/kg/day, time 21.0 day
Mus musculus [17] = assay: Effect on body weight in hypercholesterolemic ApoE-/- mouse model at 0.5 to 30 mg/kg/day, ip measured for 14 days; format: functional, organism-based; conditions: dose 0.5-30 mg/kg/day, time 14.0 day
Mus musculus [18] = assay: Antiatherosclerotic activity in hypercholesterolemic ApoE-/- mouse model assessed as decrease in liver fibrosis at 5 to 15 mg/kg/day, ip measured after 21 days by H and E staining based analysis; format: functional, organism-based; conditions: dose 5-15 mg/kg/day, time 21.0 day
Mus musculus [19] = assay: Synergistic antiatherosclerotic activity in hypercholesterolemic ApoE-/- mouse model assessed as decrease in vacuolization in liver at 5 to 15 mg/kg, ip administered daily for 3 weeks in presence of SIMV by H and E staining based analysis; format: functional, organism-based; conditions: dose 5-15 mg/kg
Mus musculus [20] = assay: Synergistic antiatherosclerotic activity in hypercholesterolemic ApoE-/- mouse model assessed as effect on plasma LDH level at 5 to 15 mg/kg, ip administered daily for 3 weeks in presence of SIMV; format: functional, organism-based; conditions: dose 5-15 mg/kg
Huh-7 [21] = assay: Effect on LC3B level in human Huh-7 cells upto 100 nM incubated for 24 hrs by Western blot analysis; format: functional, cell-based
Mus musculus [22] = assay: Synergistic antiatherosclerotic activity in hypercholesterolemic ApoE-/- mouse model assessed as decrease in plaque area in aortic arch at 5 to 15 mg/kg, ip administered daily for 3 weeks in presence of SIMV by Aortic oil red O staining based analysis; format: functional, organism-based; conditions: dose 5-15 mg/kg
Mus musculus [23] = assay: Antiatherosclerotic activity in hypercholesterolemic ApoE-/- mouse model assessed as decrease in liver fibrosis at 5 to 15 mg/kg/day, ip measured after 21 days by Masson staining based analysis; format: functional, organism-based; conditions: dose 5-15 mg/kg/day, time 21.0 day
Mus musculus [24] = assay: Synergistic antiatherosclerotic activity in hypercholesterolemic ApoE-/- mouse model assessed as effect on plasma GSH level at 5 to 15 mg/kg, ip administered daily for 3 weeks in presence of SIMV; format: functional, organism-based; conditions: dose 5-15 mg/kg
Mus musculus [25] = assay: Antiatherosclerotic activity in hypercholesterolemic ApoE-/- mouse model assessed as decrease in oxidative stress in liver at 5 to 15 mg/kg/day, ip measured after 21 days; format: functional, organism-based; conditions: dose 5-15 mg/kg/day, time 21.0 day
Mus musculus [26] = assay: Antiatherosclerotic activity in hypercholesterolemic ApoE-/- mouse model assessed as decrease in plasma LDL-C level administered intraperitoneally measured after 14 days; format: functional, organism-based; conditions: dose 15.0 mg/kg/day, route ip, time 14.0 day
Huh-7 [27] = assay: Effect on PCSK9 mRNA level in human Huh-7 cells at 20 to 500 nM incubated for 12 hrs by qRT-PCR analysis; format: functional, cell-based; conditions: dose 20-500 nM
Mus musculus [28] = assay: Synergistic antiatherosclerotic activity in hypercholesterolemic ApoE-/- mouse model assessed as increase in liver LDL uptake capacity at 5 to 15 mg/kg, ip administered daily for 3 weeks in presence of SIMV by Western blot analysis; format: functional, organism-based; conditions: dose 5-15 mg/kg
Mus musculus [29] = assay: Antiatherosclerotic activity in hypercholesterolemic ApoE-/- mouse model assessed as decrease in plaque area in aortic arch at 5 to 15 mg/kg/day, ip measured after 21 days by Aortic oil red O staining based analysis; format: functional, organism-based; conditions: dose 5-15 mg/kg/day, time 21.0 day
Mus musculus [30] = assay: Synergistic antiatherosclerotic activity in hypercholesterolemic ApoE-/- mouse model assessed as decrease in liver fibrosis at 5 to 15 mg/kg, ip administered daily for 3 weeks in presence of SIMV by Masson staining based analysis; format: functional, organism-based; conditions: dose 5-15 mg/kg
Mus musculus [31] = assay: Antiatherosclerotic activity in hypercholesterolemic ApoE-/- mouse model assessed as decrease in liver PCSK9 level administered intraperitoneally measured after 14 days; format: functional, organism-based; conditions: dose 15.0 mg/kg/day, route ip, time 14.0 day
Mus musculus [32] = assay: Antiatherosclerotic activity in hypercholesterolemic ApoE-/- mouse model assessed as decrease in plasma triglyceride level administered intraperitoneally measured after 14 days; format: functional, organism-based; conditions: dose 15.0 mg/kg/day, route ip, time 14.0 day
Mus musculus [33] = assay: Antiatherosclerotic activity in hypercholesterolemic ApoE-/- mouse model assessed as decrease in plaque area in […] at 5 to 15 mg/kg/day, ip measured after 21 days; format: functional, organism-based; conditions: dose 5-15 mg/kg/day, time 21.0 day
Mus musculus [34] = assay: Antiatherosclerotic activity in hypercholesterolemic ApoE-/- mouse model assessed as decrease in liver PCSK9 level at 5 to 15 mg/kg/day, ip measured after 21 days by Western blot analysis; format: functional, organism-based; conditions: dose 5-15 mg/kg/day, time 21.0 day
Mus musculus [35] = assay: Antiatherosclerotic activity in hypercholesterolemic ApoE-/- mouse model assessed as decrease in liver PCSK9 level at 5 to 15 mg/kg/day, ip measured after 21 days by immunohistochemistry analysis; format: functional, organism-based; conditions: dose 5-15 mg/kg/day, time 21.0 day
Mus musculus [36] = assay: Antiatherosclerotic activity in hypercholesterolemic ApoE-/- mouse model assessed as decrease in plasma PCSK9 level at 5 to 15 mg/kg/day, ip measured after 21 days; format: functional, organism-based; conditions: dose 5-15 mg/kg/day, time 21.0 day
Huh-7 [37] = assay: Effect on LDLR mRNA level in human Huh-7 cells at 20 to 500 nM incubated for 12 hrs by qRT-PCR analysis; format: functional, cell-based; conditions: dose 20-500 nM
Mus musculus [38] = assay: Synergistic antiatherosclerotic activity in hypercholesterolemic ApoE-/- mouse model assessed as […] in liver IL-1beta level at 5 to 15 mg/kg, ip administered daily for 3 weeks in presence of SIMV by Western blot analysis; format: functional, organism-based; conditions: dose 5-15 mg/kg
Mus musculus [39] = assay: Antiatherosclerotic activity in hypercholesterolemic ApoE-/- mouse model assessed as increase in liver LDLR level administered intraperitoneally measured after 14 days; format: functional, organism-based; conditions: dose 15.0 mg/kg/day, route ip, time 14.0 day
Liver = assay: In vivo induction of PCSK9 degradation in liver of hypercholesterolemic ApoE-/- mouse model at administered intraperitoneally daily for 3 weeks in presence of SIMV by Western blot analysis; format: functional, organism-based; conditions: dose 5-15 mg/kg, route ip
Mus musculus [40] = assay: Synergistic antiatherosclerotic activity in hypercholesterolemic ApoE-/- mouse model assessed as effect on plasma MDA level at 5 to 15 mg/kg, ip administered daily for 3 weeks in presence of SIMV; format: functional, organism-based; conditions: dose 5-15 mg/kg
Huh-7 [41] = assay: Cytotoxicity against human Huh-7 cells upto 1000 nM incubated for 24 hrs by MTT assay; format: toxicity, cell-based; conditions: huh-7, 24 h, 1 µM
Mus musculus [42] = assay: Synergistic antiatherosclerotic activity in hypercholesterolemic ApoE-/- mouse model assessed as decrease in vacuolization in liver at 5 to 15 mg/kg, ip administered daily for 3 weeks in presence of SIMV by Masson staining based analysis; format: functional, organism-based; conditions: dose 5-15 mg/kg
Mus musculus [43] = assay: Antiatherosclerotic activity in hypercholesterolemic ApoE-/- mouse model assessed as decrease in oxidative stress at 5 to 15 mg/kg/day, ip measured after 21 days; format: functional, organism-based; conditions: dose 5-15 mg/kg/day, time 21.0 day
Mus musculus [44] = assay: Antiatherosclerotic activity in hypercholesterolemic ApoE-/- mouse model assessed as decrease in vacuolization in liver at 5 to 15 mg/kg/day, ip measured after 21 days by H and E staining based analysis; format: functional, organism-based; conditions: dose 5-15 mg/kg/day, time 21.0 day
Huh-7 [45] = conditions: Homo sapiens, dose <= 100.0 nM
Description: Inhibition of oxidative stress injury in PA/LPS-stimulated human Huh-7 cells assessed as decrease in triglyceride level upto 100 nM

`COc1cc2c(cc1OCCCCN1C(=O)/C(=C\c3cc(Br)c(O)c(OC)c3)c3cc(Br)ccc31)C(C)(CC(=O)Nc1nccs1)NCC2` (stereo unspecified) was tested, and the Activity (Mus musculus [1]) was “Active”, the Activity (Mus musculus [2]) was “Active” and the Activity (Mus musculus [3]) was “Active”. For the same compound, the Activity (Huh-7 [4]) was “inactive”, the Activity (Mus musculus [5]) was “Active” and the Activity (Mus musculus [6]) was “Active”. The Activity (Mus musculus [7]) was “Active”, the Activity (Mus musculus [8]) was “Active” and the Activity (Mus musculus [9]) was “<=47.36%”. The Activity (Mus musculus [10]) was “Dose-Dependent Effect”, the Activity (Mus musculus [11]) was “Active” and the Activity (Mus musculus [12]) was “Active”. The Activity (Mus musculus [13]) was “Dose-Dependent Effect”, the Activity (Huh-7 [14]) was “inactive” and the Activity (Mus musculus [15]) was “Active”. The Activity (Mus musculus [16]) was “Active”, the Activity (Mus musculus [17]) was “inactive” and the Activity (Mus musculus [18]) was “Active”. The Activity (Mus musculus [19]) was “Active”, the Activity (Mus musculus [20]) was “Active” and the Activity (Huh-7 [21]) was “inactive”. The Activity (Mus musculus [22]) was “Active”, the Activity (Mus musculus [23]) was “Active” and the Activity (Mus musculus [24]) was “Active”. The Activity (Mus musculus [25]) was “Active”, the Activity (Mus musculus [26]) was “Dose-Dependent Effect” and the Activity (Huh-7 [27]) was “inactive”. The Activity (Mus musculus [28]) was “Active”, the Activity (Mus musculus [29]) was “Active” and the Activity (Mus musculus [30]) was “Active”. The Activity (Mus musculus [31]) was “Dose-Dependent Effect”, the Activity (Mus musculus [32]) was “Dose-Dependent Effect” and the Activity (Mus musculus [33]) was “Active”. For the same compound, the Activity (Mus musculus [34]) was “Active”, the Activity (Mus musculus [35]) was “Active” and the Activity (Mus musculus [36]) was “Active”. For the same compound, the Activity (Huh-7 [37]) was “inactive”, the Activity (Mus musculus [38]) was “Active” and the Activity (Mus musculus [39]) was “Dose-Dependent Effect”. The Activity (Liver) was “Dose-Dependent Effect”, the Activity (Mus musculus [40]) was “Active” and the Activity (Huh-7 [41]) was “Non-Toxic”. For the same compound, the Activity (Mus musculus [42]) was “Active”, the Activity (Mus musculus [43]) was “Active” and the Activity (Mus musculus [44]) was “Active”. For the same compound, the inhibition (Huh-7 [45]) was “Active”.
